Read-outs that look alike come from different tables or passages of the source.
Columns and labels:
[1] = Stability of the powder in sealed aluminium foil bag, purity and titre by HPLC; type: physicochemical; settings: protected from light; for Titre, starting values: HPLC titre of acid moiety; for Titre, starting values / Purity, starting values: start; for Purity, starting values: airtight container
Procedure: The stability of the compounds listed in the following table, under powder form and in sealed aluminium foil bag, was tested, keeping the samples in airtight container, protected from light and measuring the purity and the titre thereof after 6 and 12 months.
In particular, the stability of the acid moiety was observed by HPLC, detecting the purity and titre thereof.

[2] = mice, one capsule
Procedure: The biological tests were carried out on 12 mice weighing 200-300 g, administering to each of them one 3 mg capsule containing the dose of the selected compound, as below reported, dispersed in lactose.
The haematic values of the selected compound were subsequently evaluated after regular time intervals (0, 30, 60, 95, 120 min.).

[3] = cited from earlier work
[4] = background statement, cited from earlier work
[5] = after nine months, U.S. Pat. No. 5,817,659 (Example 1)
[6] = after twelve months, U.S. Pat. No. 6,271,374 (Example 1)

SMILES	Titre, starting values [1]	Purity, starting values [1]	Purity after 6 months [1]	Titre after 6 months [1]	Purity after 12 months [1]	Titre after 12 months [1]	haematic value ([2]; time 0.5 h)	haematic value ([2]; time 1.5 h)	haematic value ([2]; time 2 h)	titre decrease [3, 5]	other results
CN1c2c(nc(N)[nH]c2=O)NCC1CNc1ccc(C(=O)NC(CCC(=O)O)C(=O)O)cc1.NC1C(O)OC(CO)C(O)C1O.NC1C(O)OC(CO)C(O)C1O (mixture of isomers) [D-GAL (6R,S)-5-MTHF, D-galactosamine 5-methyl-(6R,S)-tetrahydrofolate]	55.5%	99.1	98.9	55.2%	98.7	55.3%					
CN1c2c(nc(N)[nH]c2=O)NCC1CNc1ccc(C(=O)NC(CCC(=O)O)C(=O)O)cc1.NC1C(O)OC(CO)C(O)C1O.NC1C(O)OC(CO)C(O)C1O (mixture of isomers) [D-GLU 5-MTHF, D-glucosamine 5-methyl-(6R,S)-tetrahydrofolate]	55.2%	99.1	98.9	55%	99.0	54.8%	83.2 ± 4.9 nmol/L	83.8 ± 4.3 nmol/L	82.8 ± 4.3 nmol/L		
CN1c2c([nH]c(N)nc2=O)NC[C@@H]1CNc1ccc(C(=O)N[C@@H](CCC(=O)[O-])C(=O)[O-])cc1.[Ca+2] [5-methyl-(6S)-tetrahydrofolic acid calcium salts]											titre decrease ([3]; after twelve months, U.S. Pat. No. 6,441,168 (Example 1)): about 1%
Nc1nc(=O)c2c([nH]1)NC[C@@H](CNc1ccc(C(=O)N[C@@H](CCC(=O)[O-])C(=O)[O-])cc1)N2.[Ca+2] [(6R)-tetrahydrofolic acid calcium salts]										about 2%	titre decrease [3, 6]: about 7%
Nc1nc(=O)c2c([nH]1)NCC(CNc1ccc(C(=O)N[C@@H](CCC(=O)[O-])C(=O)[O-])cc1)N2.[Ca+2] (stereo partly drawn) [(6R,S)-tetrahydrofolic acid calcium salts]										about 2%	
Nc1nc(=O)c2c([nH]1)NC[C@H](CNc1ccc(C(=O)N[C@@H](CCC(=O)[O-])C(=O)[O-])cc1)N2.[Ca+2] [(6S)-tetrahydrofolic acid calcium salts]										about 2%	titre decrease [3, 6]: about 7%
N[C@H]1C(O)O[C@H](CO)[C@H](O)[C@@H]1O.N[C@H]1C(O)O[C@H](CO)[C@H](O)[C@@H]1O.Nc1nc2ncc(CNc3ccc(C(=O)N[C@@H](CCC(=O)O)C(=O)O)cc3)nc2c(=O)[nH]1 [D-GAL folate, D-galactosamine L-folate]	54.8%	99.2	99.1	54.5%	98.7	54.2%					
CN1c2c(nc(N)[nH]c2=O)NCC1CNc1ccc(C(=O)NC(CCC(=O)O)C(=O)O)cc1.NC1C(O)OC(CO)C(O)C1O.NC1C(O)OC(CO)C(O)C1O [D-GLU (6S)-5-MTHF, D-glucosamine 5-methyl-(6S)-tetrahydrofolate]	55.7%	99.3	99.0	55.4%	98.5	55.1%	83.7 ± 5.2 nmol/L	83.7 ± 4.3 nmol/L	83 ± 4.3 nmol/L		haematic value ([2]; time 1 h): 86.1 ± 5.0 nmol/L
N[C@H]1C(O)O[C@H](CO)[C@@H](O)[C@@H]1O.N[C@H]1C(O)O[C@H](CO)[C@@H](O)[C@@H]1O.Nc1nc2ncc(CNc3ccc(C(=O)N[C@@H](CCC(=O)O)C(=O)O)cc3)nc2c(=O)[nH]1 [D-GLU folate, D-glucosamine L-folate]	54.6%	99.1	98.8	54.3%	98.7	54%	75.3 ± 4.3 nmol/L	78.4 ± 4.3 nmol/L	76.8 ± 4.3 nmol/L		haematic value ([2]; time 1 h): 79.8 ± 5.2 nmol/L
Nc1nc2ncc(CNc3ccc(C(=O)N[C@@H](CCC(=O)O)C(=O)O)cc3)nc2c(=O)[nH]1 [Folic acid, N-[4-[[(2-amino-1,4-dihydro-4-oxo-6-pteridinyl)methyl]amino]benzoyl]-L-glutamic acid]											solubility in alcohol ([4]; alcohol): insoluble; solubility in dilute solutions of alkali hydroxides and carbonates [4]: readily soluble; solubility in water ([4]; water): very slightly soluble
